What was measured:
Assay type in all cases: cell-based
hNav1.7 [1] = target: T1, hNav1.7 (Homo sapiens, UniProt Q15858); experiment: Nav1.7 potency, Patchliner automated patch clamp; settings: automated patchclamp
T1 construct: expressed in transfected cells
Procedure: (§1) The generation of a HEK 293F cell line stably expressing human Nav1.7/Navp1 was achieved by co-transfecting human SCN9A and human SCN1B cDNAs, subcloned into plasmid vectors, utilizing standard transfection techniques. Clones were selected using appropriate selection agents (0.3 mg/mL Zeocin and 0.8 mg/mL Geneticin) and maintained in Dulbecco's Modified Eagle medium, 10% fetal bovine serum, 1% non-essential amino acids to ˜80% confluence at 37° C. in a humidified incubator with 95% atmosphere and 5% CO2.
(§2) In some cases, the potency of compounds was measured using either the Patchliner automated patch clamp platform (Nanion) or manual patch clamp techniques. Both approaches allowed the compounds to be characterized based upon the ability of a compound to modulate use- and/or state-dependence. The potency data is tabulated in Table 3 and is represented by eight data fields. The first four fields represent potency data measured with the Patchliner automated platform under varying use- and state-dependent electrophysiology protocols similar to the Patch express protocols detailed above. The first data column describes the potency of compounds when the Nav1.7 channel is being repetitively activated at a 7 Hz hyperpolarization frequency (Table 3: hNav1.7: IC50 of inward current block at 7 Hz, Automated patchclamp). The second data column represents the potency at which 50% of the initial hyperpolarization pulse is inhibited by the compounds (Table 3: hNav1.7: IC50 of P1 block, Automated patchclamp). The third data column details the potency of compounds in their ability to block 50% of Nav1.7 channels when these channels are induced into the slow inactivated state (Table 3: hNav1.7: IC50 of slow inactivation block, Automated patchclamp). […] The next three data fields describe the data generated from manual patchclamp electrophysiology measurements using similar methods to those employed for automated patchclamp studies. […] The last column characterizes the state-dependence of compound inhibition. Compounds that maintain the greatest potency for the slow inactivated state over fast inactivated or tonic inhibition at 0.25 Hz are characterized as “state dependent, blocker of slow inactivation”.

human Nav1.7 = target: T2, human Nav1.7 (Homo sapiens, UniProt Q15858); experiment: Assessment of Nav1.7 activity on PatchXpress (voltage dependence / slow inactivation parameters); settings: compound at 10 μM, relative to 0.2% DMSO vehicle control; for hNav1.7: Reduction in current at 20 mV (normalized data) Delta Ratio: before/after 30 sec conditioning pulse at 20 mV; for hNav1.7: Shift in voltage dependence of inactivation (mV) Delta Vhalf: PatchXpress
T2 construct: expressed in transfected cells
Method in brief: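 HEK293F cells stably co-expressing hNav1.7 and β1 were recorded by automated patch clamp in TEA-based external solution (50 mM NaCl, pH 7.4) with CsF internal solution (pH 7.2). A variable conditioning prepulse inactivated channels, followed by a brief hyperpolarizing step and a depolarizing test pulse. Compounds at 10 μM were compared with 0.2% DMSO vehicle across four parameters.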

hNav1.7 [2] = target: T1, hNav1.7; experiment: Nav1.7 potency, manual patch clamp; settings: slow inactivated state; manual patchclamp; read-out: Nav1.7 IC50 SLOW INACTIVATION BLOCK (nM) (Manual Patchclamp)
Procedure: as §1, §2

[3] = initial pulse (P1), read-out: Nav1.7 IC50 P1 BLOCK (nM) (Automated Patchclamp)
[4] = slow inactivated state, read-out: Nav1.7 IC50 SLOW INACTIVATION BLOCK (nM) (Automated Patchclamp)
[5] = 7 Hz, read-out: Nav1.7 IC50 INWARD CURRENT BLOCK (nM) (7 Hz, Automated Patchclamp)

T2 sequence (Q15858 whole entry): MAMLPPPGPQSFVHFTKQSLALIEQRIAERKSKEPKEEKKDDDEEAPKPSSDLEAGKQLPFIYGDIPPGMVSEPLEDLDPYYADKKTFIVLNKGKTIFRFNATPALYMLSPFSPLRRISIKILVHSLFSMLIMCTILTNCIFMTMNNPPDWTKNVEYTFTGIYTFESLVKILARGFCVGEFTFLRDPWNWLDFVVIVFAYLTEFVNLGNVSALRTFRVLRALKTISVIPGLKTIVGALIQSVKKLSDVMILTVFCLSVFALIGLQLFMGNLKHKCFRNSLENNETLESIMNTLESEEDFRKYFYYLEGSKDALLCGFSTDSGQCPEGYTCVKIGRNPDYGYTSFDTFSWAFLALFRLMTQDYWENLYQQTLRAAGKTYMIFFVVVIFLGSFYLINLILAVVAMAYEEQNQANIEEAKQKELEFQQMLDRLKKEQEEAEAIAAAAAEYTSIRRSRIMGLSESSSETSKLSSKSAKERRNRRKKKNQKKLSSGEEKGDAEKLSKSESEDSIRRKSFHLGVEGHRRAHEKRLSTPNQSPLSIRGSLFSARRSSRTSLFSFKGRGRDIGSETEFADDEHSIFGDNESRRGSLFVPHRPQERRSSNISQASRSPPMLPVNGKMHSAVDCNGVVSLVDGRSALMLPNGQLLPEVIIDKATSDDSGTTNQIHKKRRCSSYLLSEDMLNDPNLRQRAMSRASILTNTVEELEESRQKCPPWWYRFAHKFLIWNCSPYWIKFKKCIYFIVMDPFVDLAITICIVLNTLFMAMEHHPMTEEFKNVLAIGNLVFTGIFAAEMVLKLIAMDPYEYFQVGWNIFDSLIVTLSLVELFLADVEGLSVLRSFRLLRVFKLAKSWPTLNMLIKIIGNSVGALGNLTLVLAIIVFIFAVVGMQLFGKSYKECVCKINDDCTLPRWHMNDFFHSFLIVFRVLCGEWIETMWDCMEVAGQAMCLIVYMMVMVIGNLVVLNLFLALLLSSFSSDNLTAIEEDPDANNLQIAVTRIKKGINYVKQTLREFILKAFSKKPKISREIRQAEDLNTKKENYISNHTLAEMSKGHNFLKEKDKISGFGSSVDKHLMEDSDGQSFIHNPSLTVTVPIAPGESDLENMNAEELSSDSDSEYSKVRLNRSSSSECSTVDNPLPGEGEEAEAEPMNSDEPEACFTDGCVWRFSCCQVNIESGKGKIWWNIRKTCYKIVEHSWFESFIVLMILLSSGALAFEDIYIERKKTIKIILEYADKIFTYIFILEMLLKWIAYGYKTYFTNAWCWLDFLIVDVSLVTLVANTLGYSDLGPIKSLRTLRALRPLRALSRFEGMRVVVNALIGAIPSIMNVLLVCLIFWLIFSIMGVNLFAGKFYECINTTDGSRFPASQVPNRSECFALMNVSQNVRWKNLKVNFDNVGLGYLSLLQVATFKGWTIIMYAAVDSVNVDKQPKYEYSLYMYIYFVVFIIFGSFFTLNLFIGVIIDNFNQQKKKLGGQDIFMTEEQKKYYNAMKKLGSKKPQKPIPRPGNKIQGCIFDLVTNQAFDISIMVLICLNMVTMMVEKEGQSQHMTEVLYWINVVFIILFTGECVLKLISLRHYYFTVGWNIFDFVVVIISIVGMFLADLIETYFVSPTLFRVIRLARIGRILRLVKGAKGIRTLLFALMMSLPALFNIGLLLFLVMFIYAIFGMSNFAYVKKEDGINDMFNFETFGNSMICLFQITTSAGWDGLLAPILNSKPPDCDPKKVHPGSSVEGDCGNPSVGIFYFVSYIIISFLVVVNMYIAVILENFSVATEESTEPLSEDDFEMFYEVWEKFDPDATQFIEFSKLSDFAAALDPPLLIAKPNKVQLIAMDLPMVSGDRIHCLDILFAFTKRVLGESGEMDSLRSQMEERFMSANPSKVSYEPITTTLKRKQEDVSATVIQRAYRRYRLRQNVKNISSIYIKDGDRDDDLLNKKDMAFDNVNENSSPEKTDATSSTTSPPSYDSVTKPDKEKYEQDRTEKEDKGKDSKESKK
T2 sequence (Q07699 19-218 partner): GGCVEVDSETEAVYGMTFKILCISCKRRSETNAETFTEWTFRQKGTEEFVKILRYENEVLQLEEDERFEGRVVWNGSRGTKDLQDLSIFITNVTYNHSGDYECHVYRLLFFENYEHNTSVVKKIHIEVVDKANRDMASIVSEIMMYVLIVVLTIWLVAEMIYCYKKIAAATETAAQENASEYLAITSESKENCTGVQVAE
T1 sequence (Q15858 whole entry): as the sequence (Q15858 whole entry) above
T1 sequence (Q07699 19-218 partner): as the sequence (Q07699 19-218 partner) above

Row | IC50 (hNav1.7 [1]; [3]) [nM] | IC50 (hNav1.7 [1]; [4]) [nM] | hNav1.7: Reduction in current at 20 mV (normalized data) Delta Ratio (human Nav1.7) | hNav1.7: Voltage dependence of activation (mV) VDEP (human Nav1.7) [mV] | hNav1.7: Voltage dependence of fast inactivation (mV) VDEP (human Nav1.7) [mV] | hNav1.7: Shift in voltage dependence of inactivation (mV) Delta Vhalf (human Nav1.7) [mV] | IC50 (hNav1.7 [2]) [nM] | IC50 (hNav1.7 [1]; [5]) [nM] | Compound
1 | 15500 | 2580 | −0.30 | −8.60 | −6.80 | −20.90 | 568 | – | CC(C)C[C@@H](N)C(=O)N[C@@H](C)COc1cc(C(F)(F)F)cc(C(F)(F)F)c1 [Compound 1, (R)-2-amino-N-((S)-1-(3,5-bis(trifluoromethyl)phenoxy)propan-2-yl)-4-methylpentanamide]
2 | 12700 | 2770 | −0.25 | −4.80 | −6.20 | −32.70 | – | 1660 | CC(C)C[C@@H](N)C(=O)NC(C)COc1cc(C(F)(F)F)cc(C(F)(F)F)c1 (stereo partly drawn) [Compound 6, (2R)-2-amino-N-(1-(3,5-bis(trifluoromethyl)phenoxy)propan-2-yl)-4-methylpentanamide]
3 | 11500 | 4120 | −0.20 | −3.70 | −3.50 | −31.40 | – | 1890 | CC(C)CC(N)C(=O)N[C@@H](C)COc1cc(C(F)(F)F)cc(C(F)(F)F)c1 (stereo partly drawn) [Compound 10, 2-amino-N-((S)-1-(3,5-bis(trifluoromethyl)phenoxy)propan-2-yl)-4-methylpentanamide]
4 | – | – | −0.06 | −11.4 | −3.9 | −0.3 | – | – | CC(C)(C)OC(=O)N[C@H](Cc1cccc(C(F)(F)F)c1)C(=O)NCc1nc2ccc(-c3ccc(F)c(Cl)c3)cc2[nH]1 [Compound 76, tert-butyl (R)-(1-(((6-(3-chloro-4-fluorophenyl)-1H-benzo[d]imidazol-2-yl)methyl)amino)-1-oxo-3-(3-(trifluoromethyl)phenyl)propan-2-yl)carbamate]
5 | – | – | −0.06 | −2.2 | −5 | −0.3 | – | – | CN(Cc1nc2c(C(F)(F)F)cc(C(F)(F)F)cc2[nH]1)C(=O)CNC(C)(C)C [Compound 77, N-((4,6-bis(trifluoromethyl)-1H-benzo[d]imidazol-2-yl)methyl)-2-(tert-butylamino)-N-methylacetamide]
6 | – | – | −0.04 | −10.5 | −4.6 | −4.2 | – | – | NCC(=O)NCc1cc(C(F)(F)F)cc(C(F)(F)F)c1 [Compound 78, 2-amino-N-(3,5-bis(trifluoromethyl)benzyl)acetamide]
7 | – | – | −0.03 | −9.3 | −3.8 | −7.2 | – | – | COC[C@@H](N)C(=O)NCC(=O)NCc1cc(C(F)(F)F)cc(C(F)(F)F)c1 [Compound 80, (R)-2-amino-N-(2-((3,5-bis(trifluoromethyl)benzyl)amino)-2-oxoethyl)-3-methoxypropanamide]
8 | – | – | −0.02 | −10.3 | −5 | −2.8 | – | – | C[C@@H](NC(=O)CN1CCNCC1=O)c1ccc(OCC(F)(F)F)cn1 [Compound 81, (R)-2-(2-oxopiperazin-1-yl)-N-(1-(5-(2,2,2-trifluoroethoxy)pyridin-2-yl)ethyl)acetamide]
9 | – | – | −0.02 | −5.6 | −8.7 | −2.5 | – | – | C[C@@H](NC(=O)[C@@H]1CCCN1)c1ccc(OCC(F)(F)F)cn1 [Compound 82, (S)-N-((R)-1-(5-(2,2,2-trifluoroethoxy)pyridin-2-yl)ethyl)pyrrolidine-2-carboxamide]
10 | – | – | 0.01 | −3.1 | −0.5 | −1.5 | – | – | C[C@@H](NC(=O)[C@H]1CCCN1)c1ccc(OCC(F)(F)F)cn1 [Compound 83, (R)-N-((R)-1-(5-(2,2,2-trifluoroethoxy)pyridin-2-yl)ethyl)pyrrolidine-2-carboxamide]
11 | – | – | 0.02 | −6.7 | −2.4 | 0 | – | – | FC(F)(F)c1cc(C(F)(F)F)c2nc([C@H]3CCCCN3)[nH]c2c1 [Compound 84, (R)-2-(piperidin-2-yl)-5,7-bis(trifluoromethyl)-1H-benzo[d]imidazole]
12 | – | – | 0.03 | −3.4 | −3.2 | 0.3 | – | – | O[C@@H]1CN[C@H](c2nc3cc(C(F)(F)F)cc(C(F)(F)F)c3[nH]2)C1 [Compound 85, (3S,5S)-5-(5,7-bis(trifluoromethyl)-1H-benzo[d]imidazol-2-yl)pyrrolidin-3-ol]
13 | – | – | −0.01 | −10.6 | −4.4 | −3.6 | – | – | O=C(Cc1nc2cc(F)cc(F)c2[nH]1)NC1CCNCC1 [Compound 89, 2-(4,6-difluoro-1H-benzo[d]imidazol-2-yl)-N-(piperidin-4-yl)acetamide]
14 | – | – | 0.01 | −2.9 | 0.1 | 2.3 | – | – | NC1CCN(C(=O)Cc2nc3cc(C(F)(F)F)cc(C(F)(F)F)c3[nH]2)CC1 [Compound 90, 1-(4-aminopiperidin-1-yl)-2-(4,6-bis(trifluoromethyl)-1H-benzo[d]imidazol-2-yl)ethan-1-one]
15 | – | – | 0.01 | −5 | −4.1 | −3.1 | – | – | O=C1CNCCN1Cc1cc(C(F)(F)F)cc(C(F)(F)F)c1 [Compound 91, 1-(3,5-bis(trifluoromethyl)benzyl)piperazin-2-one]
16 | – | – | 0.01 | −7.1 | −3.9 | −2.2 | – | – | COC[C@@H]1C(=O)N(Cc2cc(C(F)(F)F)cc(C(F)(F)F)c2)CCN1C(C)=O [Compound 92, (R)-4-acetyl-1-(3,5-bis(trifluoromethyl)benzyl)-3-(methoxymethyl)piperazin-2-one]

Row | Compound | IC50 (hNav1.7 [1]; [3]) [nM] | IC50 (hNav1.7 [1]; [4]) [nM] | hNav1.7: Reduction in current at 20 mV (normalized data) Delta Ratio (human Nav1.7) | hNav1.7: Voltage dependence of activation (mV) VDEP (human Nav1.7) [mV] | hNav1.7: Voltage dependence of fast inactivation (mV) VDEP (human Nav1.7) [mV] | hNav1.7: Shift in voltage dependence of inactivation (mV) Delta Vhalf (human Nav1.7) [mV] | IC50 (hNav1.7 [2]) [nM] | IC50 (hNav1.7 [1]; [5]) [nM]
17 | COC[C@@H](NC(C)=O)C(=O)NCc1cc(C(F)(F)F)cc(C(F)(F)F)c1 [Compound 79, (R)-2-acetamido-N-(3,5-bis(trifluoromethyl)benzyl)-3-methoxypropanamide] | – | – | −0.04 | −15.2 | −7.9 | −5.8 | – | –

Source: patent publication US20170107203A1, “HETEROCYCLIC INHIBITORS OF THE SODIUM CHANNEL” (EPIRUS BIOPHARMACEUTICALS, INC., priority 2014, published 2017)
